Measured values as given in patent publication US20170105981A1, “METHODS FOR STABILIZING HYPOXIA INDUCIBLE FACTOR-2 ALPHA AS A METHOD FOR TREATING CANCER” (The Ohio State Innovation Foundation, priority 2011, published 2017).

System: B16F10 murine melanoma cells
Assay: Murine melanoma tumor model (B16F10 in C57BL/6 mice)
Type: in vivo
Settings: for tumor growth: FIG. 14A
Description: Mice were injected with 1×10^5 B16F10 murine melanoma cells murine subcutaneously on the left flank. Once tumors become palpable (approximately 5 days), mice were randomly allocated to receive treatment with either: 20% polyethylene glycol (PEG) in 5% […] (vehicle control for the disclosed HIF-2α stabilizer) and PBS (vehicle control for GM-CSF), 20% PEG and GM-CSF (100 ng per mouse in a 50 μL volume), the disclosed HIF-2α stabilizer (17.5 mg/kg in a 100 μL volume) and PBS, or the disclosed HIF-2α stabilizer and GM-CSF (same doses). The PBS and GM-CSF were administered intratumorally, while the 20% PEG and the disclosed HIF-2α stabilizer were administered intraperitoneally. Mice were treated 3 times per week until tumors reached a size of 20 mm in any dimension (approximately 2.5 weeks), at which point mice were euthanized, in accordance with institutional policy. Tumor diameters were measured 3 times per week with calipers, and tumor volumes were calculated as follows: Tumor volume=0.5×[(large diameter)×(small diameter)^2].
6-8-week-old C57BL/6 mice were injected with 1×10^5 B16F10 murine melanoma cells murine subcutaneously on the left flank. Once tumors become palpable (approximately 5 days), mice were randomly allocated to receive treatment with either: 20% PEG-400 in 5% sucrose (vehicle for disclosed HIF-2α stabilizer) and PBS (vehicle for GM-CSF), 20% PEG-400 and GM-CSF (100 ng per mouse in a 50 μL volume), disclosed HIF-2α stabilizer (17.5 mg/kg mouse weight in a 100 μL volume) and PBS, or the disclosed HIF-2α stabilizer and GM-CSF (same concentrations). The disclosed HIF-2α stabilizer (or the vehicle control) was administered intraperitoneally, while GM-CSF (or the vehicle control) was administered intratumorally. Mice were treated […] 3 times per week until tumors reached a size of 20 mm in any dimension (approximately 2.5 weeks), at which point mice were be euthanized, in accordance with institutional policy. Tumor diameters were measured 3 times per week with calipers, and tumor volumes will be calculated as follows: Tumor volume=0.5×[(large diameter)×(small diameter)^2]. For experiments analyzing the effect of neutralizing sVEGFR-1 in combination with disclosed HIF-2α stabilizer treatment, mice were treated intraperitoneally 3×/week with either disclosed HIF-2α stabilizer or vehicle control, and intratumorally with either 4 μg anti-VEGFR-1 neutralizing antibody (R&D Systems) or 4 μg polyclonal goat IgG isotype control (Santa Cruz Biotechnology) in a 50 μL volume. All protocols were approved by the Ohio State University Animal Care and Use Committee, and mice were treated in accordance with institutional guidelines for animal care.
The ANOVA test was used to compare independent measurements between multiple treatment groups. The data was log-transformed to normalize the variance across groups. P-values were adjusted using the Holm's procedure to conserve the type I error at 0.05 due to the multiple comparisons. For tumor growth data, changes in tumor volume over time were assessed via a longitudinal model. Tumor values were log-transformed, and estimated slopes (changes in tumor volume over time) were calculated with 95% confidence intervals. Estimated differences in tumor volume were calculated by a random-effects regression of the longitudinal data. For all analyses, p≦0.05 was considered statistically significant.
6-8-week-old C57BL/6 mice or SCID mice were injected with 1×10^5 B16F10 murine melanoma cells or 1×10^6 A375 human melanoma cells, respectively, subcutaneously on the left flank. […]

For O=C(O)CNC(=O)c1ncc(-c2cccc(F)c2)cc1O [disclosed HIF-2α stabilizer, {[5-(3-Fluorophenyl)-3-hydroxypyridine-2-carbonyl]amino} acetic acid], the “tumor growth / tumor volume” value (B16F10 melanoma, stabilizer 17 mg/kg I.P., GM-CSF I.T., vs PBS control, FIG. 3) was “reduces tumor growth”, the “increase in median survival (time to a tumor diameter of 20 mm)” value (B16F10 melanoma-bearing mice, stabilizer alone, p=0.023, FIG. 12B) was 3 days and the “average tumor volumes vs vehicle controls” value (day 16 of treatment, 3×/week, GM-CSF 100 ng/mouse intratumoral, stabilizer 17.5 mg/kg intraperitoneal, each p<0.001) was “significantly smaller”. For the same compound, the tumor growth (mice also treated with anti-sVEGFR-1 neutralizing antibody, p=0.245) was “no effect” and the tumor growth (mice treated with isotype control antibody, p<0.001) was “decreased tumor growth”.
